From BigSolDB 2.1

O=C(O)CC(O)C(=O)O (configuration not stated)
solubility (mole fraction)
Settings | 303.2 K | 308.2 K | 313.2 K | 318.2 K | 323.2 K | 328.2 K | 333.2 K
in 1,4-dioxane | 0.14 | 0.153 | 0.16 | 0.168 | 0.177 | 0.192 | 0.21
in THF | 0.145 | 0.156 | 0.191 | 0.199 | 0.219 | 0.235 | 0.253
in acetonitrile | 0.007 | 0.009 | 0.011 | 0.012 | 0.015 | 0.017 | 0.021
in ethanol | 0.082 | 0.091 | 0.101 | 0.115 | 0.121 | 0.129 | 0.134
in isopropanol | 0.036 | 0.045 | 0.055 | 0.071 | 0.094 | 0.118 | 0.134
in water | 0.066 | 0.084 | 0.106 | 0.132 | 0.154 | 0.17 | 0.184
